Test results reported in ChEMBL document CHEMBL1201862, “PubChem BioAssay data set” (2004).
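Following 48 hours of exposure in 96-well plates, responses at five concentrations were used to interpolate endpoints linearly. The concentration for 50% growth inhibition is given as GI50.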 Activity calls are given as the source filed them. No stated cut-off is given here; in the data, active = GI50 up to about 1.1 µM and inactive = higher.

Legend:
Assay in all cases: NCI tumour cell line growth inhibition, 48 h
DLD-1 = system: DLD-1
XF498 = system: XF498
SNB-78 = system: SNB-78
M19-MEL = system: M19-MEL
DMS-114 = system: DMS-114
KM-20L2 = system: KM-20L2
DMS-273 = system: DMS-273
HOP-18 = system: HOP-18
RXF 631 = system: RXF 631

SMILES | GI50 (DLD-1) | GI50 (XF498) | GI50 (SNB-78) | GI50 (M19-MEL) | GI50 (DMS-114) | GI50 (KM-20L2) | GI50 (DMS-273) | GI50 (HOP-18) | GI50 (RXF 631)
O=C(/C(=C\c1ccccc1)CN1CCOCC1)c1ccc(Br)cc1 | 1.51 µM (inactive) | 4.89 µM (inactive) | 5.61 µM (inactive) | 1.73 µM (inactive) | 1.78 µM (inactive) | 2.65 µM (inactive) | 2.88 µM (inactive) | 1.81 µM (inactive) | 
O=CN/C=C/c1cccc(O)c1 | > 100 µM (inactive) | > 100 µM (inactive) | > 100 µM (inactive) | > 100 µM (inactive) | > 100 µM (inactive) | > 100 µM (inactive) | > 100 µM (inactive) | > 100 µM (inactive) | 
CNC(=S)OCCC(C)CCCC(C)C (centres undefined) | 15.5 µM (inactive) | 17 µM (inactive) | 18.8 µM (inactive) | 19.3 µM (inactive) |  | 16.3 µM (inactive) | 16.8 µM (inactive) | 15.3 µM (inactive) | 
CC(=O)OC1COC(N2CCc3cc([N+](=O)[O-])ccc32)C(OC(C)=O)C1OC(C)=O (centres undefined) | > 100 µM (inactive) | 50.4 µM (inactive) | > 100 µM (inactive) | > 100 µM (inactive) | > 100 µM (inactive) | > 100 µM (inactive) | > 100 µM (inactive) |  | 
COc1cc2c(oc(=O)c3c4occc4cc(OC)c23)c2cccc(OCc3ccccc3)c12 | > 100 µM (inactive) | 42 µM (inactive) | 37.8 µM (inactive) | 61.5 µM (inactive) | > 100 µM (inactive) | > 100 µM (inactive) | 38.9 µM (inactive) | > 100 µM (inactive) | 
C=CCN(N=O)C(=O)NCCCCC(NC(C)=O)C(=O)NCc1ccccc1 (centres undefined) |  | > 100 µM (inactive) |  | > 100 µM (inactive) | > 100 µM (inactive) | > 100 µM (inactive) | > 100 µM (inactive) | 80.7 µM (inactive) | > 100 µM (inactive)
O=C1CCC(=O)N1Sc1ccccc1 | > 100 µM (inactive) |  | > 100 µM (inactive) | > 100 µM (inactive) | > 100 µM (inactive) | > 100 µM (inactive) | > 100 µM (inactive) |  | > 100 µM (inactive)
COC(=O)CCC(NC(=S)N/N=C(\C)c1ccc[nH]1)C(=O)OC (centres undefined) | > 100 µM (inactive) | > 100 µM (inactive) | > 100 µM (inactive) | > 100 µM (inactive) | > 100 µM (inactive) | > 100 µM (inactive) | > 100 µM (inactive) | > 100 µM (inactive) | 
NCCCNc1ccc2c3c(nn2CCNCCO)-c2c(O)ccc(O)c2C(=O)c13 | 4.08 µM (inactive) | 0.125 µM (active) | 1.42 µM (inactive) | 1.5 µM (inactive) | 0.561 µM (active) | 2.89 µM (inactive) | 0.366 µM (active) | 2.32 µM (inactive) | 
O=C1C(c2ccc(Br)cc2)=[N+]([O-])c2ccccc21 | 8.51 µM (inactive) | 17.5 µM (inactive) |  | 9.62 µM (inactive) | 3.94 µM (inactive) | 20.7 µM (inactive) |  | 11.9 µM (inactive) | 
COC(=O)c1ccc(N/C=C(/C#N)c2ccsc2)cc1 | 13 µM (inactive) |  | 15 µM (inactive) | 34 µM (inactive) | 15 µM (inactive) | 12 µM (inactive) | 14.8 µM (inactive) |  | 
COc1ccc(CCN2CCC(C#N)(c3ccc(OC)c(OC)c3)CC2)cc1OC | > 100 µM (inactive) | 50.2 µM (inactive) |  | > 100 µM (inactive) | 60.4 µM (inactive) | > 100 µM (inactive) | > 100 µM (inactive) | > 100 µM (inactive) | 
CC(=O)OC1(C#N)CC2OC1C1C2N1C(=O)c1ccccc1 (centres undefined) | > 100 µM (inactive) | > 100 µM (inactive) | > 100 µM (inactive) | > 100 µM (inactive) | > 100 µM (inactive) | > 100 µM (inactive) |  |  | > 100 µM (inactive)
NC(=S)N1N=C2c3ccccc3CC[C@H]2[C@@H]1c1ccc(Cl)cc1 | 31.7 µM (inactive) | 26.4 µM (inactive) | 87.3 µM (inactive) | 30.6 µM (inactive) | 23.9 µM (inactive) | 29.8 µM (inactive) | 24.7 µM (inactive) | 18.6 µM (inactive) | 
c1ccc2c(c1)n1nnnc1c1nnnn21 | > 100 µM (inactive) | > 100 µM (inactive) | 53.6 µM (inactive) | > 100 µM (inactive) | 83.4 µM (inactive) | 93.8 µM (inactive) | > 100 µM (inactive) |  | > 100 µM (inactive)
N#CC(C(=O)CCC(=O)Nc1cccc(Cl)c1)c1ccccc1 (centres undefined) | > 100 µM (inactive) |  | > 100 µM (inactive) | > 100 µM (inactive) | > 100 µM (inactive) | > 100 µM (inactive) | > 100 µM (inactive) | > 100 µM (inactive) | > 100 µM (inactive)
NC(=O)c1cc(N2CC2)c([N+](=O)[O-])cc1[N+](=O)[O-] [TRETAZICAR] |  |  | > 100 µM (inactive) | > 100 µM (inactive) | > 100 µM (inactive) | > 100 µM (inactive) | > 100 µM (inactive) |  | > 100 µM (inactive)
C=C(CN(C)C)C(=O)c1cc(C)ccc1C | 2.28 µM (inactive) | 17.9 µM (inactive) | 26.9 µM (inactive) | 4.81 µM (inactive) | 5.02 µM (inactive) | 23 µM (inactive) | 11.7 µM (inactive) | 4.13 µM (inactive) | 
COc1ccc(/C=C2/C(=O)N(C(=O)c3ccccc3O)N=C2C)cc1OC | 0.23 µM (active) | 1.68 µM (inactive) | 0.0453 µM (active) | 1.29 µM (inactive) | 0.301 µM (active) | 24.9 µM (inactive) |  |  | 
CC(C(=O)N1C(=O)N(C(=O)C(C)C(O)c2ccccc2)C2CCCCC21)C(O)c1ccccc1 (centres undefined) |  | 79.6 µM (inactive) | > 100 µM (inactive) | 83.8 µM (inactive) |  | > 100 µM (inactive) | > 100 µM (inactive) |  | 
CCCCN[C@H]1C2C3CC4C5CC(C42)C1(C)C53 (some centres undefined) | > 100 µM (inactive) |  | > 100 µM (inactive) | > 100 µM (inactive) | > 100 µM (inactive) | > 100 µM (inactive) | > 100 µM (inactive) | > 100 µM (inactive) | 
Cc1ccc(C)c(NC(=O)C(=O)C2C(=O)N(c3ccccc3)N=C2N)c1 (centres undefined) | > 100 µM (inactive) | > 100 µM (inactive) | > 100 µM (inactive) | > 100 µM (inactive) |  | > 100 µM (inactive) | > 100 µM (inactive) | > 100 µM (inactive) | > 100 µM (inactive)
O=C1NC(=S)NC(=O)C1=Cc1cc2c(cc1[N+](=O)[O-])OCO2 | 67.3 µM (inactive) |  | > 100 µM (inactive) | > 100 µM (inactive) | 36.8 µM (inactive) | > 100 µM (inactive) | 63.1 µM (inactive) | > 100 µM (inactive) | 97.3 µM (inactive)
Cc1cc(NCCCCCCCNc2cc(C)nc3cc(N)ccc23)c2ccc(N)cc2n1 | 28.8 µM (inactive) | 17.2 µM (inactive) | 40.3 µM (inactive) | 32.2 µM (inactive) | 1.57 µM (inactive) | 34.2 µM (inactive) |  |  | 
O=c1nc2occc2cn1C1CC(O)C(CO)O1 (centres undefined) | > 100 µM (inactive) | > 100 µM (inactive) | > 100 µM (inactive) | > 100 µM (inactive) | > 100 µM (inactive) | > 100 µM (inactive) | > 100 µM (inactive) | > 100 µM (inactive) | > 100 µM (inactive)
CC(C)c1cccc(C(C)C)c1NC(=O)C(=O)CC(=O)CC(c1ccccc1)c1c(O)oc2ccccc2c1=O (centres undefined) | > 100 µM (inactive) |  |  |  | > 100 µM (inactive) | > 100 µM (inactive) |  |  | 
Cc1cc(C)c(N)c(C)c1N | > 100 µM (inactive) |  | > 100 µM (inactive) | > 100 µM (inactive) | > 100 µM (inactive) | > 100 µM (inactive) | > 100 µM (inactive) | > 100 µM (inactive) | 
COc1ccc(C2=C(Cl)c3cc(OC)c(OC)cc3C2OC)cc1OC (centres undefined) | 17.9 µM (inactive) | > 100 µM (inactive) | > 100 µM (inactive) | > 100 µM (inactive) | 14.2 µM (inactive) | > 100 µM (inactive) | 27.4 µM (inactive) | > 100 µM (inactive) | 
